In patent US10428082B2, “Triazole derivatives of melampomagnolide B and methods of use thereof” (BioVentures, LLC, priority 2016, dated 2019):

What was measured:
Assay in all cases: NCI 60 growth inhibition
Assay type in all cases: cell-based, human
[1] = test system: IGROV1; conditions: IGROV1, Ovarian Cancer, Table 3
Protocol: (§1) The above triazole derivatives of melampomagnolide B were evaluated for growth inhibitory properties against an NCI panel of 60 human cancer cell lines derived from nine human cancer cell types, grouped into disease sub-panels that represent leukemia, lung, colon, central nervous system (CNS), melanoma, renal, ovary, breast, and prostate cancer cells. Growth inhibitory (GI50) effects were measured as a function of the variation of optical density as a percentage of control.

[2] = test system: OVCAR-4; conditions: OVCAR-4, Ovarian Cancer, Table 3
Protocol: as §1

[3] = test system: SNB-19; conditions: SNB-19, CNS Cancer, Table 3
Protocol: as §1

[4] = test system: SF-295; conditions: SF-295, CNS Cancer, Table 3
Protocol: as §1

[5] = test system: RXF 393; conditions: RXF 393, Renal Cancer, Table 3
Protocol: as §1

[6] = test system: MDA-MB-231/ATCC; conditions: Breast Cancer, Table 3
Protocol: as §1

[7] = test system: A498; conditions: A498, Renal Cancer, Table 3
Protocol: as §1

[8] = test system: MDA-MB-468; conditions: MDA-MB-468, Breast Cancer, Table 3
Protocol: as §1

[9] = test system: DU-145; conditions: DU-145, Prostate Cancer, Table 3
Protocol: as §1

[10] = test system: SW-620; conditions: SW-620, Colon Cancer, Table 3
Protocol: as §1

[11] = test system: OVCAR-8; conditions: OVCAR-8, Ovarian Cancer, Table 3
Protocol: as §1

[12] = test system: SK-MEL-2; conditions: SK-MEL-2, Melanoma, Table 3
Protocol: as §1

[13] = test system: OVCAR-5; conditions: OVCAR-5, Ovarian Cancer, Table 3
Protocol: as §1

[14] = test system: SNB-75; conditions: SNB-75, CNS Cancer, Table 3
Protocol: as §1

[15] = test system: SN12C; conditions: Renal Cancer, Table 3
Protocol: as §1

[16] = test system: KM12; conditions: KM12, Colon Cancer, Table 3
Protocol: as §1

[17] = test system: ACHN; conditions: Renal Cancer, Table 3
Protocol: as §1

[18] = test system: SF-539; conditions: SF-539, CNS Cancer, Table 3
Protocol: as §1

[19] = test system: COLO 205; conditions: COLO 205, Colon Cancer, Table 3
Protocol: as §1

[20] = test system: MALME-3M; conditions: Melanoma, Table 3
Protocol: as §1

[21] = test system: CCRF-CEM; conditions: Leukemia, Table 3
Protocol: as §1

[22] = test system: HCT-116; conditions: HCT-116, Colon Cancer, Table 3
Protocol: as §1

[23] = test system: K-562; conditions: K-562, Leukemia, Table 3
Protocol: as §1

[24] = test system: NCI-H23; conditions: NCI-H23, Non-Small Cell Lung Cancer, Table 3
Protocol: as §1

[25] = test system: MDA-MB-435; conditions: MDA-MB-435, Melanoma, Table 3
Protocol: as §1

[26] = test system: EKVX; conditions: Non-Small Cell Lung Cancer, Table 3
Protocol: as §1

[27] = test system: UO-31; conditions: UO-31, Renal Cancer, Table 3
Protocol: as §1

[28] = test system: TK-10; conditions: TK-10, Renal Cancer, Table 3
Protocol: as §1

[29] = test system: OVCAR-3; conditions: OVCAR-3, Ovarian Cancer, Table 3
Protocol: as §1

[30] = test system: 786-0; conditions: 786-0, Renal Cancer, Table 3
Protocol: as §1

[31] = test system: A549/ATCC; conditions: Non-Small Cell Lung Cancer, Table 3
Protocol: as §1

[32] = test system: HCC-2998; conditions: HCC-2998, Colon Cancer, Table 3
Protocol: as §1

[33] = test system: NCI-H460; conditions: NCI-H460, Non-Small Cell Lung Cancer, Table 3
Protocol: as §1

[34] = test system: MCF7; conditions: MCF7, Breast Cancer, Table 3
Protocol: as §1

[35] = test system: NCI-H226; conditions: NCI-H226, Non-Small Cell Lung Cancer, Table 3
Protocol: as §1

[36] = test system: HS 578T; conditions: Breast Cancer, Table 3
Protocol: as §1

[37] = test system: MOLT-4; conditions: MOLT-4, Leukemia, Table 3
Protocol: as §1

[38] = test system: PC-3; conditions: PC-3, Prostate Cancer, Table 3
Protocol: as §1

[39] = test system: RPMI-8226; conditions: RPMI-8226, Leukemia, Table 3
Protocol: as §1

SMILES | GI50 [1] | GI50 [2] | GI50 [3] | GI50 [4] | GI50 [5] | GI50 [6] | GI50 [7] | GI50 [8] | GI50 [9] | GI50 [10] | GI50 [11] | GI50 [12] | GI50 [13] | GI50 [14] | GI50 [15] | GI50 [16] | GI50 [17] | GI50 [18] | GI50 [19] | GI50 [20] | other results
C=C1C(=O)O[C@H]2[C@H]1CC/C(Cn1cc(-c3ccsc3)nn1)=C\CC[C@@]1(C)O[C@@H]21 [JVM 4-53] | 1920 nM | 2480 nM | 9490 nM | 9610 nM | 1070 nM | 1750 nM | 2650 nM | 1280 nM | 1430 nM | 1320 nM | 2960 nM | 2270 nM | 2290 nM | 3230 nM | 2450 nM | 6450 nM | 1320 nM | 1800 nM | 1450 nM | 1610 nM | GI50 [21]: 1630 nM; GI50 [22]: 1160 nM; GI50 [23]: 2510 nM; GI50 [24]: 1820 nM; GI50 [25]: 1850 nM; GI50 [26]: 2330 nM; GI50 [27]: 1350 nM; GI50 [28]: 1520 nM; GI50 [29]: 1060 nM; GI50 [30]: 1760 nM; GI50 [31]: 8610 nM; GI50 [32]: 1840 nM; GI50 [33]: 4710 nM; GI50 [34]: 1680 nM; GI50 [35]: 2090 nM; GI50 [36]: 2820 nM; GI50 [37]: 2590 nM; GI50 [38]: 4210 nM; GI50 [39]: 2450 nM
C=C1C(=O)O[C@H]2[C@H]1CC/C(Cn1cc(-c3ccccc3C(F)(F)F)nn1)=C\CC[C@@]1(C)O[C@@H]21 [JVM 4-59] | 1810 nM | 2770 nM | 10800 nM | 10300 nM | 1070 nM | 1640 nM | 3860 nM | 1140 nM | 1420 nM | 1240 nM | 2230 nM | 2450 nM | 2460 nM | 2970 nM | 2470 nM | 5880 nM | 1450 nM | 1760 nM | 1980 nM | 1700 nM | GI50 [21]: 760 nM; GI50 [22]: 1260 nM; GI50 [23]: 2400 nM; GI50 [24]: 1750 nM; GI50 [25]: 2180 nM; GI50 [26]: 2320 nM; GI50 [27]: 1230 nM; GI50 [28]: 1710 nM; GI50 [29]: 1040 nM; GI50 [30]: 1840 nM; GI50 [31]: 7230 nM; GI50 [32]: 1850 nM; GI50 [33]: 3970 nM; GI50 [34]: 1330 nM; GI50 [35]: 1730 nM; GI50 [36]: 3570 nM; GI50 [37]: 3030 nM; GI50 [38]: 4320 nM; GI50 [39]: 1870 nM
